Test results as given in US10869878B2, “Vaginal composition and use thereof” (SINGAPORE ZE&Z INTERNATIONAL PTE. LTD, priority 2014, dated 2020).

Test system: BV-associated bacteria
Test: Acid production by BV-associated bacteria in semi-solid agars containing a carbohydrate, anaerobic incubation (Experimental Example 2)
Format: cell-based
Settings: 24 hrs anaerobic, 37° C., 1.5% (w/v) carbohydrate, initial pH 5.4
Description: (1) Grouping in experiment: • (1) Glucose group: containing 1.5% (w/v) glucose, MRS basal medium without carbohydrate, 5% (w/v) calf serum, and 0.45% (w/v) agar, pH5.4; • (2) Fructose group: containing 1.5% (w/v) fructose, MRS basal medium without carbohydrate, 5% (w/v) calf serum, and 0.45% (w/v) agar, pH5.4; • (3) Mannose group: containing 1.5% (w/v) mannose, MRS basal medium without carbohydrate, 5% (w/v) calf serum, and 0.45% (w/v) agar, pH5.4; • (4) Sucrose group: containing 1.5% (w/v) sucrose, MRS basal medium without carbohydrate, 5% (w/v) calf serum, and 0.45% (w/v) agar, pH5.4; • (5) Maltose group: containing 1.5% (w/v) maltose, MRS basal medium without carbohydrate, 5% (w/v) calf serum, and 0.45% (w/v) agar, pH5.4; • (6) Isomaltose group: containing 1.5% (w/v) isomaltose, MRS basal medium without carbohydrate, 5% (w/v) calf serum, and 0.45% (w/v) agar, pH5.4; and • (7) Isomaltulose group: containing 1.5% (w/v) isomaltulose, MRS basal medium without carbohydrate, 5% (w/v) calf serum, and 0.45% (w/v) agar, pH5.4.
The semi-solid agar of each group was formulated essentially following the method described in Composition Example 1, then sterilized, added with calf serum, and packed in test tubes in a specification of 5 g/tube, for late use.
(2) Secretion specimens from BV patients: vaginal secretions from 5 BV patients; and the criteria of inclusion are: • (1) conforming to the Amsel clinical criteria of BV diagnosis, wherein the pH value of the vaginal secretions was >4.6; • (2) after smearing, Gram staining and microscopical examination of vaginal secretions, Nugent score ≥7; and • (3) no other vaginosis and no antimicrobial agent is used within two weeks.
(3) After sampling, the secretion specimens from BV patients meeting the criteria of inclusion were immediately inoculated to the above 7 aseptic semi-solid agars containing a carbohydrate at the bedside and anaerobically incubated at 37° C. for 24 hrs. The pH values of the agar matrices are detected with a precise pH test paper.

Structure (SMILES) | pH of the semi-solid agar (Specimen 1) | pH of the semi-solid agar (Specimen 2) | pH of the semi-solid agar (Specimen 3) | pH of the semi-solid agar (Specimen 4) | pH of the semi-solid agar (Specimen 5)
OC[C@H]1O[C@@](CO)(O[C@H]2O[C@H](CO)[C@@H](O)[C@H](O)[C@H]2O)[C@@H](O)[C@@H]1O [Sucrose, sucrose] | 4.1-4.4 | 3.8-4.1 | 3.8 | 4.1 | 3.8
OC[C@H]1O[C@H](OC[C@H]2OC(O)(CO)[C@@H](O)[C@@H]2O)[C@H](O)[C@@H](O)[C@@H]1O (stereo partly drawn) [Isomaltulose, isomaltulose] | 3.8 | 3.8 | 3.8 | 3.8 | 3.8
OC[C@H]1O[C@H](OC[C@H]2OC(O)[C@H](O)[C@@H](O)[C@@H]2O)[C@H](O)[C@@H](O)[C@@H]1O (stereo partly drawn) [Isomaltose, isomaltose] | 3.8-4.1 | 4.1 | 3.8 | 3.8 | 3.8
